ChEMBL document CHEMBL1142376, “Novel CADD-based peptidyl vinyl ester derivatives as potential proteasome inhibitors” (Bioorg Med Chem Lett, 2008)

Assays:
[1] = Inhibition of chymotrypsin-like activity of 20S proteasome
[2] = Inhibition of post acidic-like activity of 20S proteasome
[3] = Inhibition of trypsin-like activity of 20S proteasome
HL-60 = assay: Antiproliferative activity against human HL60 cells at 10 umole; format: functional
BGC-823 = assay: Antiproliferative activity against human BGC823 cells at 10 umole; format: functional
Bel-7402 = assay: Antiproliferative activity against human Bel7402 cells at 10 umole; format: functional
KB = assay: Antiproliferative activity against human KB cells at 10 umole; format: functional

SMILES | IC50 [1] | IC50 [2] | IC50 [3] | Activity (HL-60) | Activity (BGC-823) | Activity (Bel-7402) | Activity (KB)
CCOC(=O)/C=C/[C@H](Cc1ccc(O)cc1)NC(=O)[C@@H](NC(=O)OC(C)(C)C)[C@@H](C)CC | > 100 µmol | > 100 µmol | > 100 µmol | 21.66% | 23.06% | 3.32% | 5.27%
CCOC(=O)/C=C/[C@H](Cc1ccc(O)cc1)NC(=O)[C@H](CC(C)C)NC(=O)[C@H](CC(C)C)NC(=O)OC(C)(C)C | > 100 µmol | > 100 µmol | > 100 µmol | -2.64% | 0.02% | -6.95% | -5.99%
CCOC(=O)/C=C/[C@H](C[C@@H]1CCNC1=O)NC(=O)[C@H](CC(C)C)NC(=O)[C@@H](NC(=O)[C@@H](NC(=O)OC(C)(C)C)[C@@H](C)CC)[C@@H](C)O | > 100 µmol | > 100 µmol | > 100 µmol | -2.32% | 19.98% | -0.31% | 4.3%
CCOC(=O)/C=C/[C@H](Cc1ccccc1)NC(=O)[C@H](Cc1ccccc1)NC(=O)[C@H](CC(C)C)NC(=O)OC(C)(C)C | > 100 µmol | > 100 µmol | > 100 µmol | 8.65% | 13.32% | -4.56% | 4.33%
CCOC(=O)/C=C/[C@H](C[C@@H]1CCNC1=O)NC(=O)[C@H](CC(C)C)NC(=O)[C@H](CO)NC(=O)[C@H](Cc1ccccc1)NC(=O)OC(C)(C)C | > 100 µmol | > 100 µmol | > 100 µmol | 4.94% | 14.25% | -0.39% | -4.17%
CC(C)(C)OC(=O)N[C@@H](Cc1ccccc1)C(=O)N[C@@H](CO)C(=O)N[C@H](/C=C/C(=O)O)Cc1ccc(O)cc1 | > 100 µmol | > 100 µmol | > 100 µmol | 13.37% | 10.28% | 3.39% | 7.44%
CCOC(=O)/C=C/[C@H](Cc1ccccc1)NC(=O)[C@@H](NC(=O)[C@@H](NC(=O)OC(C)(C)C)[C@@H](C)CC)[C@@H](C)O | > 100 µmol | > 100 µmol | > 100 µmol | 8.17% | 13.62% | -1.79% | 10.75%
CCOC(=O)/C=C/[C@H](Cc1ccc(O)cc1)NC(=O)[C@@H](NC(=O)OC(C)(C)C)C(C)C | > 100 µmol | > 100 µmol | > 100 µmol | 22.1% | 18.44% | 4.6% | 1.76%
CC(C)(C)OC(=O)N[C@@H](CO)C(=O)N[C@H](/C=C/C(=O)O)Cc1ccc(O)cc1 | > 100 µmol | > 100 µmol | > 100 µmol | 19.26% | 22.56% | -5.91% | -15.49%
CCOC(=O)/C=C/[C@H](C[C@@H]1CCNC1=O)NC(=O)[C@H](CC(C)C)NC(=O)[C@H](CO)NC(=O)[C@@H](NC(=O)OC(C)(C)C)C(C)C | > 100 µmol | > 100 µmol | > 100 µmol | -47.14% | 20.55% | -3.55% | 9.15%
CCOC(=O)/C=C/[C@H](Cc1ccc(O)cc1)NC(=O)[C@@H](NC(=O)[C@@H](NC(=O)OC(C)(C)C)[C@@H](C)CC)[C@@H](C)O | > 100 µmol | > 100 µmol | > 100 µmol | 26.5% | 14.69% | 3.1% | 3.76%
CCOC(=O)/C=C/[C@H](C[C@@H]1CCNC1=O)NC(=O)[C@H](Cc1ccccc1)NC(=O)[C@H](CC(C)C)NC(=O)OC(C)(C)C | > 100 µmol | > 100 µmol | > 100 µmol | -7.61% | 13.89% | -1.63% | -1.56%
CCOC(=O)/C=C/[C@H](C[C@@H]1CCNC1=O)NC(=O)[C@H](CC(C)C)NC(=O)[C@H](CC(C)C)NC(=O)OC(C)(C)C | > 100 µmol | > 100 µmol | > 100 µmol | 36.97% | 21.44% | -2.4% | -14.03%

Now from value to molecule, other results behind:

IC50 [1] | IC50 [2] | IC50 [3] | SMILES | Activity (HL-60) | Activity (BGC-823) | Activity (Bel-7402) | Activity (KB)
> 100 µmol | > 100 µmol | > 100 µmol | CCOC(=O)/C=C/[C@H](Cc1ccccc1)NC(=O)[C@@H](NC(=O)OC(C)(C)C)C(C)C | 27.13% | 21.27% | -3.57% | -1.97%
> 100 µmol | > 100 µmol | > 100 µmol | CCOC(=O)/C=C/[C@H](Cc1ccccc1)NC(=O)[C@H](Cc1ccccc1)NC(=O)OC(C)(C)C | 25.73% | 20.9% | -3.61% | -4.66%
> 100 µmol | > 100 µmol | > 100 µmol | CCOC(=O)/C=C/[C@H](Cc1ccccc1)NC(=O)[C@@H](NC(=O)OC(C)(C)C)[C@@H](C)CC | 29.56% | 24.14% | -7.74% | -0.18%
> 100 µmol | > 100 µmol | > 100 µmol | CCOC(=O)/C=C/[C@H](Cc1ccccc1)NC(=O)[C@H](CC(C)C)NC(=O)OC(C)(C)C | 33.88% | 30.21% | 1.55% | -6.67%
> 100 µmol | > 100 µmol | > 100 µmol | CCOC(=O)/C=C/[C@H](Cc1ccc(O)cc1)NC(=O)[C@H](CC(C)C)NC(=O)OC(C)(C)C | 5.87% | 17.01% | -10.27% | 1.72%
> 100 µmol | > 100 µmol | > 100 µmol | CCOC(=O)/C=C/[C@H](Cc1ccccc1)NC(=O)[C@H](CC(C)C)NC(=O)[C@H](CC(C)C)NC(=O)OC(C)(C)C | 6.13% | 9.95% | -12.87% | -1.67%
> 100 µmol | > 100 µmol | > 100 µmol | CCOC(=O)/C=C/[C@H](Cc1ccc(O)cc1)NC(=O)[C@H](Cc1ccccc1)NC(=O)OC(C)(C)C | 23.66% | 33.88% | 12.68% | -0.7%
> 100 µmol | > 100 µmol | > 100 µmol | CCOC(=O)/C=C/[C@H](Cc1ccccc1)NC(=O)[C@H](CO)NC(=O)OC(C)(C)C | 19.98% | 19.11% | -3.14% | -11.24%
